Test results as given in US6447748B1, “Benzamide compounds for cancer imaging and therapy” (Research Corporation Technologies, Inc., priority 1993, dated 2002).
Several values for one entry are separate records, joined by “and”; a condition that tells them apart may be missing. Equal entries are not always repeated.

Assay: Biodistribution of 2-[125I]BP and 3-[125I]BP in Sprague Dawley rats
Type: in vivo
Conditions: for Biodistribution Blood / Biodistribution Brain / Biodistribution Heart / Biodistribution Kidney / Biodistribution Liver / Biodistribution Lung / Biodistribution Muscle / Biodistribution Spleen / Biodistribution Thyroid: average of four rats
Description: A similar procedure was performed with 2-[^125I]BP and 3-[^125I]BP but blood samples were only collected at 1, 6 and 24 hours.

Row | Biodistribution Brain (1 hr.) [% ID/whole organ] | Biodistribution Heart (1 hr.) [% ID/whole organ] | Biodistribution Kidney (1 hr.) [% ID/whole organ] | Biodistribution Liver (1 hr.) [% ID/whole organ] | Biodistribution Lung (1 hr.) [% ID/whole organ] | Biodistribution Muscle (1 hr.) [% ID/whole organ] | Biodistribution Spleen (1 hr.) [% ID/whole organ] | Biodistribution Thyroid (1 hr.) [% ID/whole organ] | Biodistribution Blood (6 hr.) [% ID/whole organ] | Biodistribution Brain (6 hr.) [% ID/whole organ] | Biodistribution Heart (6 hr.) [% ID/whole organ] | Biodistribution Kidney (6 hr.) [% ID/whole organ] | Biodistribution Liver (6 hr.) [% ID/whole organ] | Biodistribution Lung (6 hr.) [% ID/whole organ] | Biodistribution Muscle (6 hr.) [% ID/whole organ] | Biodistribution Spleen (6 hr.) [% ID/whole organ] | Biodistribution Thyroid (6 hr.) [% ID/whole organ] | Biodistribution Blood (24 hr.) [% ID/whole organ] | Structure (SMILES) | clearance | Biodistribution Blood (1 hr.) | further results
1 | 0.48 ± 0.12 | 0.17 ± 0.03 | 1.68 ± 0.08 | 22.36 ± 1.29 | 1.06 ± 0.21 | 16.15 ± 2.13 | 0.32 ± 0.07 | 0.14 ± 0.04 | 1.30 ± 0.12 | 0.05 ± 0.01 | 0.05 ± 0.00 | 0.39 ± 0.06 | 6.07 ± 0.18 | 0.21 ± 0.02 | 6.75 ± 0.32 | 0.12 ± 0.01 | 1.91 ± 0.23 | 0.50 ± 0.05 | O=C(NC1CCN(Cc2ccccc2)CC1)c1ccccc1[125I] [2-[^125I]BP, ^125I-(N-benzylpiperidin-4-yl)-2-iodobenzamide] | fast clearance from the blood and normal organs | 2.06 ± 0.42 % ID/whole organ | Biodistribution Brain (24 hr.): 0.01 ± 0.00 % ID/whole organ; Biodistribution Heart (24 hr.): 0.01 ± 0.00 % ID/whole organ; Biodistribution Kidney (24 hr.): 0.05 ± 0.01 % ID/whole organ; Biodistribution Liver (24 hr.): 0.59 ± 0.02 % ID/whole organ; Biodistribution Lung (24 hr.): 0.04 ± 0.00 % ID/whole organ; Biodistribution Muscle (24 hr.): 1.95 ± 0.11 % ID/whole organ; Biodistribution Spleen (24 hr.): 0.02 ± 0.00 % ID/whole organ; Biodistribution Thyroid (24 hr.): 2.11 ± 0.35 % ID/whole organ
2 | 0.61 ± 0.04 | 0.15 ± 0.01 | 3.49 ± 0.23 | 13.35 ± 0.62 | 0.82 ± 0.07 | 9.36 ± 0.58 | 0.47 ± 0.02 | 0.13 ± 0.02 | 0.55 ± 0.13 | 0.53 ± 0.26 | 0.07 ± 0.01 | 2.25 ± 0.16 | 9.06 ± 0.71 | 0.43 ± 0.05 | 1.23 ± 0.49 | 0.37 ± 0.05 | 0.53 ± 0.26 | 0.52 ± 0.05 | O=C(NC1CCN(Cc2ccccc2)CC1)c1cccc([125I])c1 [3-[^125I]BP, ^125I-(N-Benzylpiperidin-4-yl)-3-iodobenzamide] | fast clearance from the blood | 0.75 % ID/whole organ and 0.75 ± 0.05 % ID/whole organ | Biodistribution Brain (24 hr.): 0.81 ± 0.07 % ID/whole organ; Biodistribution Heart (24 hr.): 0.15 ± 0.01 % ID/whole organ; Biodistribution Kidney (24 hr.): 1.75 ± 0.13 % ID/whole organ; Biodistribution Liver (24 hr.): 6.65 ± 1.63 % ID/whole organ; Biodistribution Lung (24 hr.): 1.05 ± 0.04 % ID/whole organ; Biodistribution Muscle (24 hr.): 03.7 ± 0.44 % ID/whole organ; Biodistribution Spleen (24 hr.): 0.65 ± 0.08 % ID/whole organ; Biodistribution Thyroid (24 hr.): 3.43 ± 0.21 % ID/whole organ
